According to patent US10183015B2, “Heterocyclic compounds and methods of use” (Medivation Technologies LLC, priority 2015, dated 2019):
Several values for one entry are separate records, joined by “and”; a condition that tells them apart may be missing. Identical values can stand only once.

How the values were obtained:
[1] = test system: 60% high fat Paigen diet induced NASH mouse model; test: Short-term Paigen-diet NASH mouse model: liver weight and liver lipid content; assay type: in vivo
Description: To investigate whether Compound #37 prevents the development of pathology associated with NASH and steatosis in an acute exploratory disease model, a study was conducted using a diet-induced acute liver steatosis model in mice. […]
After acclimation, 8-week old male C57Bl/6J mice (Charles River) weighing about 25 g were randomized in 4 groups according their body weight and treated once daily around noon by oral gavage with vehicle, […] (2-hydroxypropyl)-β-cyclodextrin (HP-β-CD) (n=10); Group 2: Compound #37, 5 mg/kg (n=10) Group 3: Compound #37, 20 mg/kg (n=10) Group 4: Compound #37, 40 mg/kg (n=10). During the treatment period, body weight and food intake (measured over 24h) were measured 3 times per week and once a week, respectively. During the acclimation, all mice were fed a standard diet (Special Diets Services RM1 (E), product no. 801492) and tap water ad libitum. […]
After 21 days of treatment, mice were 4-hour fasted (9 am to 1 pm). One hour after the last dosing (noon), blood was collected by retro-orbital bleeding (maximal volume on EDTA) under isoflurane anesthesia to measure plasma triglycerides, total cholesterol, non-esterified fatty acid, ALT and AST. Mice were then sacrificed by cervical dislocation, and livers were harvested and weighed. Liver samples from the same lobe were dissected, frozen, and analyzed as described below.
At the end of the treatment period, livers were weighed, and their lipid content was analyzed. The liver weights were unchanged by the treatment.

HepG2 cells = test: HepG2 cell viability under serum-free conditions (MTS); assay type: cell-based; conditions: Homo sapiens
Description: Cancer cells such as HepG2 cells depend on SREBP activation and de novo lipogenesis to survive, particularly in low serum or serum-free conditions. Using this model, compounds were screened over 24 hours for the ability to block cleavage of SREBP to its active form and over 72 hours for an effect on cell viability under serum-free conditions.
For viability measurements, HepG2 cells were seeded at 5,000 cells per well in 96-well plates in DMEM supplemented with 10% FBS. After 1 day in culture, cells were treated with compounds (20 μM & 5 μM) for 3 days in DMEM without FBS. Viability was measured by MTS […]. […]

MCP-1 = test: DIN mouse model: hepatic MCP-1 levels; assay type: in vivo; conditions: 20 mg/kg; for MCP1: hepatic
Description: (§1) Male C57Bl/6J mice (8 weeks old) were housed in enriched ventilated cages (31×12.5×12.7 cm) throughout the experimental phase. Animals' cages litters were changed at least once a week. Animal were housed 5 per cage on inverted 12-hour light cycle (at 09:00 am lights off), 22±2° C. and 55±10% relative humidity. The acclimation period was 20 days. During the acclimation period, all mice were fed a standard diet (RM1 (E) 801492, SDS) and tap water ad libitum. After the acclimation period, mice were fed with the DIN diet (60% fat, cholesterol enriched) and fructose-enriched tap water ad libitum until the end of the experiment.
(§2) At 6 weeks of diet, mice were 4-hour fasted (09:00 am to 1:00 pm) and blood (150 μl/EDTA) was collected at 01:00 pm by retro-orbital bleeding under isoflurane anesthesia. Mice were then allocated in 2 homogenous groups (n=12/group) according to their plasma levels of ALT (average levels: 685U/L), AST (average levels: 627U/L) and HOMA-IR index (average value: 4.7), into 2 homogenous groups (see values at day 0 in Tables 15A and 15B ALT/AST and Tables 16A and 16B for HOMA-IR). Mice were then treated once daily by oral gavage with vehicle (Group 1) or Compound #37 at 20 mg/kg (Group 2) for 70 days.

SREBP1C = test: DIN mouse model: hepatic SREBP1C gene expression; assay type: in vivo; set-up: key to 2^DDct: expression relative to vehicle group, normalized to 18S; conditions: 20 mg/kg group; for 18S: Gene Expression: SREBP1C table, 18S reference; for 2^DDct / DDct / Dct / SREBP1C: Gene Expression: SREBP1C
Description: Gene expression analysis. Hepatic expression levels of genes involved in lipid metabolism (FAS, SREBP1, ACC1, SCD1), cholesterol metabolism (HMG-CoAR, LDLR), SREBP proteolysis (SCAP, INSIG1), ER stress (PERK), oxidative stress (NRF2), inflammation (MCP-1), and fibrosis (collagen 1α1) were quantified by RTqPCR. Expression level was normalized to 18S gene expression and relative expression to vehicle group was calculated with the […] method.
as §1, §2
Hepatic expression levels of genes involved in lipid (FAS, SREBP1, ACC1, SCD1), cholesterol metabolism (HMG-CoAR, LDLR), in SREBP proteolysis (SCAP, INSIG1), in ER stress (PERK), oxidative stress (NRF2), and inflammation (MCP-1) were not changed. However, expression of collagen 1α1, involved in liver fibrosis, was reduced by 66% in mice treated with Compound #37 (p<0.05 vs. vehicle).

[2] = 5 mg/kg p.o. daily, 21 days of diet and treatment, group mean
[3] = 5 mg/kg p.o. daily, 21 days of diet and treatment, individual animals
[4] = 20 mg/kg p.o. daily, 21 days of diet and treatment, group mean
[5] = 20 mg/kg p.o. daily, 21 days of diet and treatment, individual animals
[6] = 40 mg/kg p.o. (stopped after 4 administrations), 9 days of diet, group mean
[7] = 40 mg/kg p.o. (stopped after 4 administrations), 9 days of diet, individual animals

CC(C)Cc1cc(-c2nc(-c3ccc(NS(=O)(=O)C(F)(F)F)cc3Cl)cs2)ccn1 [Compound 37, N-(3-chloro-4-(2-(2-isobutylpyridin-4-yl)thiazol-4-yl)phenyl)-1,1,1-trifluoromethanesulfonamide]
liver cholesterol (μg/mg tissue) [1, 2]: 34.4 μg/mg tissue
liver fatty acids (nmol/mg tissue) [1, 2]: 57.6 nmol/mg tissue
liver triglycerides (μg/mg tissue) [1, 2]: 6.2 μg/mg tissue
liver cholesterol (μg/mg tissue) [1, 3]: 42.24 μg/mg tissue and 37.91 μg/mg tissue and 31.39 μg/mg tissue and 23.12 μg/mg tissue and 31.47 μg/mg tissue and 25.31 μg/mg tissue and 29.76 μg/mg tissue and 37.34 μg/mg tissue and 49.15 μg/mg tissue and 36.57 μg/mg tissue
liver fatty acids (nmol/mg tissue) [1, 3]: 65.4 nmol/mg tissue and 66.6 nmol/mg tissue and 53.5 nmol/mg tissue and 47.5 nmol/mg tissue and 55.2 nmol/mg tissue (2×) and 35.5 nmol/mg tissue and 55.0 nmol/mg tissue and 77.4 nmol/mg tissue and 65.2 nmol/mg tissue
liver triglycerides (μg/mg tissue) [1, 3]: 6.91 μg/mg tissue and 7.18 μg/mg tissue and 4.64 μg/mg tissue and 9.62 μg/mg tissue and 6.13 μg/mg tissue (2×) and 5.69 μg/mg tissue and 5.49 μg/mg tissue and 3.62 μg/mg tissue and 6.16 μg/mg tissue
liver cholesterol (μg/mg tissue) [1, 4]: 39.1 μg/mg tissue
liver fatty acids (nmol/mg tissue) [1, 4]: 63.3 nmol/mg tissue
liver triglycerides (μg/mg tissue) [1, 4]: 5.4 μg/mg tissue
liver cholesterol (μg/mg tissue) [1, 5]: 38.32 μg/mg tissue and 42.07 μg/mg tissue and 39.38 μg/mg tissue and 32.61 μg/mg tissue and 40.02 μg/mg tissue and 42.44 μg/mg tissue
liver fatty acids (nmol/mg tissue) [1, 5]: 63.4 nmol/mg tissue and 66.5 nmol/mg tissue and 65.0 nmol/mg tissue and 50.0 nmol/mg tissue and 62.7 nmol/mg tissue and 72.5 nmol/mg tissue
liver triglycerides (μg/mg tissue) [1, 5]: 6.75 μg/mg tissue and 2.65 μg/mg tissue and 2.83 μg/mg tissue and 3.72 μg/mg tissue and 9.84 μg/mg tissue and 6.82 μg/mg tissue
liver cholesterol (μg/mg tissue) [1, 6]: 20.3 μg/mg tissue
liver fatty acids (nmol/mg tissue) [1, 6]: 43.0 nmol/mg tissue
liver triglycerides (μg/mg tissue) [1, 6]: 11.7 μg/mg tissue
liver cholesterol (μg/mg tissue) [1, 7]: 22.40 μg/mg tissue and 20.18 μg/mg tissue and 20.88 μg/mg tissue and 17.60 μg/mg tissue
liver fatty acids (nmol/mg tissue) [1, 7]: 43.6 nmol/mg tissue and 43.1 nmol/mg tissue and 43.5 nmol/mg tissue and 41.8 nmol/mg tissue
liver triglycerides (μg/mg tissue) [1, 7]: 9.11 μg/mg tissue and 11.15 μg/mg tissue and 14.68 μg/mg tissue and 11.77 μg/mg tissue
cytotoxicity at 5 µM (HepG2 cells; HepG2, 72 h, 5 μM, 3 days, DMEM without FBS, read-out: Average Viability (% Inhibition, n = 3)): 94%
cytotoxicity at 20 µM (HepG2 cells; HepG2, 72 h, 20 μM, 3 days, DMEM without FBS, read-out: Average Viability (% Inhibition, n = 3)): 95%
IC50 (HepG2 cells; HepG2, serum-free, read-out: IC50 for decreased viability of HepG2 cells): 2100 nM
Hepatic MCP-1 levels reduction (MCP-1; 70 days, p<0.001 vs. vehicle): 70%
MCP1 (MCP-1; group mean, n 11): 1.7 pg/mg liver
MCP1 (MCP-1; individual animals): 1.34 pg/mg liver and 1.53 pg/mg liver and 0.60 pg/mg liver and 2.54 pg/mg liver and 1.76 pg/mg liver and 1.72 pg/mg liver and 1.42 pg/mg liver and 1.21 pg/mg liver and 1.78 pg/mg liver and 1.90 pg/mg liver and 2.59 pg/mg liver
18S (SREBP1C; individual animal, 20 mg/kg): 12.55 (2×) and 12.84 and 12.43 and 12.35 (2×) and 12.59 and 11.73 and 12.51 and 11.5 and 11.55
18S (SREBP1C; mean, n 11): 12.3
2^DDct (SREBP1C; individual animal): 1.30 and 1.21 and 0.41 and 0.49 and 0.69 and 1.10 and 0.99 and 1.37 and 0.36 and 0.47 and 2.13
DDct (SREBP1C; individual animal): −0.38 and −0.27 and 1.30 and 1.04 and 0.54 and −0.14 and 0.01 and −0.45 and 1.46 and 1.10 and −1.09
Dct (SREBP1C; individual animal): 12.98 and 13.09 and 14.66 and 14.4 and 13.9 and 13.22 and 13.37 and 12.91 and 14.82 and 14.46 and 12.27
SREBP1C (SREBP1C; individual animal): 25.53 and 25.64 and 27.5 and 26.83 and 26.25 and 25.81 and 25.1 and 25.42 and 26.32 and 26.01 and 24.62
2^DDct (SREBP1C; mean, n 11): 0.96
DDct (SREBP1C; mean, n 11): 0.28
Dct (SREBP1C; mean, n 11): 13.6
SREBP1C (SREBP1C; mean, n 11): 25.9
